Laboratory results from PubChem BioAssay AID248 (DTP/NCI, 2004).
Values joined by “and” are separate entries in the source; they are usually repeats but may differ in a detail not shown here. Equal entries are not always repeated. Toxic doses and inconclusive results are not listed. Cut-off read from the data, not from the text of the source: active = T/C of 150% or more; inactive = T/C below 125%.

Test system: L1210 leukemia ip in BDF1 mice, survival T/C
Experiment: NCI In Vivo Anticancer Drug Screen. Data for tumor model L1210 Leukemia (intraperitoneal) in B6D2F1 (BDF1) mice
Settings: endpoint: mean survival time, higher = longer survival
In short: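 Value reflects the ratio of survival in compound-treated mice to survival in vehicle-treated controls, with both groups carrying the same transplanted tumor.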

[1] = dose: 100.0 mg/kg/injection, schedule: Q04DX002 (ip), vehicle: saline
[2] = dose: 200.0 mg/kg/injection, schedule: Q04DX002 (ip), vehicle: saline
[3] = dose: 100.0 mg/kg/injection, schedule: Q04DX003 (ip), vehicle: Klucel (hydroxypropylcellulose) (HPC)
[4] = dose: 100.0 mg/kg/injection, schedule: Q04DX003 (ip), vehicle: saline with Tween-80
[5] = dose: 200.0 mg/kg/injection, schedule: Q04DX003 (ip), vehicle: saline with Tween-80
[6] = dose: 400.0 mg/kg/injection, schedule: Q04DX003 (ip), vehicle: saline with Tween-80
[7] = dose: 50.0 mg/kg/injection, schedule: Q01DX009 (ip), vehicle: saline
[8] = dose: 100.0 mg/kg/injection, schedule: Q01DX001 (ip), vehicle: saline
[9] = dose: 100.0 mg/kg/injection, schedule: Q01DX009 (ip), vehicle: saline with Tween-80
[10] = dose: 200.0 mg/kg/injection, schedule: Q01DX009 (ip), vehicle: saline with Tween-80
[11] = dose: 400.0 mg/kg/injection, schedule: Q01DX009 (ip), vehicle: saline with Tween-80
[12] = dose: 200.0 mg/kg/injection, schedule: Q01DX001 (ip), vehicle: saline
[13] = dose: 400.0 mg/kg/injection, schedule: Q01DX001 (ip), vehicle: saline
[14] = dose: 100.0 mg/kg/injection, schedule: Q04DX002 (ip), vehicle: Klucel (hydroxypropylcellulose) (HPC)
[15] = dose: 100.0 mg/kg/injection, schedule: Q01DX009 (ip), vehicle: Klucel (hydroxypropylcellulose) (HPC)
[16] = dose: 200.0 mg/kg/injection, schedule: Q01DX009 (ip), vehicle: Klucel (hydroxypropylcellulose) (HPC)
[17] = dose: 400.0 mg/kg/injection, schedule: Q01DX009 (ip), vehicle: Klucel (hydroxypropylcellulose) (HPC)
[18] = dose: 75.0 mg/kg/injection, schedule: Q01DX001 (ip), vehicle: carboxymethylcellulose (CMC)

Measured: T/C

CNC(=O)Oc1ccc2c(C)cc(=O)oc2c1
inactive: [1] 94 % of control | [2] 105 % of control

Cn1c(=S)sc2ccccc21
inactive: dose: 25.0 mg/kg/injection, schedule: Q04DX003 (ip), vehicle: saline with Tween-80 97 % of control | dose: 50.0 mg/kg/injection, schedule: Q04DX003 (ip), vehicle: saline with Tween-80 97 % of control | [3] 107 % of control

CCCOC(=O)Nc1cccc(OC(=O)NC)c1
inactive: [4] 105 % of control | [5] 94 % of control | [6] 96 % of control

CS(=O)(=O)NN
inactive: dose: 25.0 mg/kg/injection, schedule: Q01DX009 (ip), vehicle: saline 89 % of control | dose: 50.0 mg/kg/injection, schedule: Q01DX001 (ip), vehicle: saline 100 % of control | [7] 94 % of control | [8] 102 % of control and 103 % of control

c1ccc2c(c1)Nc1ccncc1S2
inactive: [9] 95 % of control | [10] 90 % of control | [11] 101 % of control

O=[N+]([O-])c1ccc(S(=O)(=O)Nc2ccc(-c3ccccc3)cc2)cc1
inactive: dose: 100.0 mg/kg/injection, schedule: Q01DX009 (ip), vehicle: other 110 % of control | dose: 100.0 mg/kg/injection, schedule: Q04DX003 (ip), vehicle: other 93 % of control | dose: 200.0 mg/kg/injection, schedule: Q01DX009 (ip), vehicle: other 98 % of control | dose: 200.0 mg/kg/injection, schedule: Q04DX003 (ip), vehicle: other 96 % of control | dose: 400.0 mg/kg/injection, schedule: Q01DX009 (ip), vehicle: other 94 % of control | dose: 400.0 mg/kg/injection, schedule: Q04DX003 (ip), vehicle: other 89 % of control

O=c1[nH]nc(SC2CCCCC2)c(=O)[nH]1
inactive: [8] 108 % of control | [12] 108 % of control | [13] 106 % of control

COC1OC2COc3ccccc3OC2C(NC#N)C1O (centres undefined)
inactive: [9] 97 % of control | [10] 96 % of control | [11] 89 % of control

O=S(=O)(Cc1ccccc1)C(Cl)c1ccccc1 (centres undefined)
inactive: [8] 115 % of control | [12] 101 % of control | [13] 89 % of control

C=COCCN(C)C
inactive: [7] 90 % of control | dose: 100.0 mg/kg/injection, schedule: Q01DX009 (ip), vehicle: saline 93 % of control | dose: 100.0 mg/kg/injection, schedule: Q04DX003 (ip), vehicle: saline 105 % of control | dose: 200.0 mg/kg/injection, schedule: Q01DX009 (ip), vehicle: saline 93 % of control | dose: 200.0 mg/kg/injection, schedule: Q04DX003 (ip), vehicle: saline 89 % of control

N#CCCn1c(=O)n(CCC#N)c(=O)n(CCC#N)c1=O
inactive: [14] 104 % of control | dose: 200.0 mg/kg/injection, schedule: Q04DX002 (ip), vehicle: Klucel (hydroxypropylcellulose) (HPC) 97 % of control | dose: 400.0 mg/kg/injection, schedule: Q04DX002 (ip), vehicle: Klucel (hydroxypropylcellulose) (HPC) 93 % of control

O=C(Nc1ccc(Cl)cc1[N+](=O)[O-])Oc1ccc(-c2ccccc2)cc1Cl
inactive: dose: 100.0 mg/kg/injection, schedule: Q01DX001 (ip), vehicle: saline with Tween-80 92 % of control | [9] 95 % of control and 91 % of control | dose: 100.0 mg/kg/injection, schedule: Q04DX002 (ip), vehicle: saline with Tween-80 101 % of control and 102 % of control | [4] 97 % of control | dose: 200.0 mg/kg/injection, schedule: Q01DX001 (ip), vehicle: saline with Tween-80 94 % of control | [10] 94 % of control and 89 % of control | dose: 200.0 mg/kg/injection, schedule: Q04DX002 (ip), vehicle: saline with Tween-80 101 % of control and 91 % of control | [5] 103 % of control | dose: 400.0 mg/kg/injection, schedule: Q01DX001 (ip), vehicle: saline with Tween-80 89 % of control | [11] 99 % of control and 103 % of control | dose: 400.0 mg/kg/injection, schedule: Q04DX002 (ip), vehicle: saline with Tween-80 88 % of control and 91 % of control | [6] 103 % of control

CCCc1nc2ccccc2c(=O)n1/N=C/c1ccc(Cl)cc1
inactive: [15] 98 % of control | [16] 88 % of control | [17] 93 % of control

CCCCCCCCCCCCCCCCCCOc1ccccc1
inactive: dose: 100.0 mg/kg/injection, schedule: Q01DX009 (sc), vehicle: olive oil, sesame oil, peanut oil 94 % of control | dose: 100.0 mg/kg/injection, schedule: Q04DX003 (sc), vehicle: olive oil, sesame oil, peanut oil 95 % of control | dose: 200.0 mg/kg/injection, schedule: Q01DX009 (sc), vehicle: olive oil, sesame oil, peanut oil 99 % of control | dose: 200.0 mg/kg/injection, schedule: Q04DX003 (sc), vehicle: olive oil, sesame oil, peanut oil 101 % of control | dose: 400.0 mg/kg/injection, schedule: Q01DX009 (sc), vehicle: olive oil, sesame oil, peanut oil 94 % of control | dose: 400.0 mg/kg/injection, schedule: Q04DX003 (sc), vehicle: olive oil, sesame oil, peanut oil 108 % of control

CCOC(=O)c1ccc(O)c(NC(C)=O)c1
inactive: [15] 95 % of control | [3] 95 % of control | [16] 94 % of control | dose: 200.0 mg/kg/injection, schedule: Q04DX003 (ip), vehicle: Klucel (hydroxypropylcellulose) (HPC) 100 % of control | [17] 94 % of control | dose: 400.0 mg/kg/injection, schedule: Q04DX003 (ip), vehicle: Klucel (hydroxypropylcellulose) (HPC) 91 % of control

CCOCC(=O)CC1CCCC1
inactive: dose: 50.0 mg/kg/injection, schedule: Q01DX009 (ip), vehicle: saline with Tween-80 103 % of control | [9] 100 % of control | [10] 95 % of control

Nn1c2ccccc2c2ccccc21
inactive: dose: 50.0 mg/kg/injection, schedule: Q01DX009 (ip), vehicle: Klucel (hydroxypropylcellulose) (HPC) 103 % of control | [18] 101 % of control | [15] 103 % of control | dose: 150.0 mg/kg/injection, schedule: Q01DX001 (ip), vehicle: carboxymethylcellulose (CMC) 104 % of control | [16] 92 % of control | dose: 300.0 mg/kg/injection, schedule: Q01DX001 (ip), vehicle: carboxymethylcellulose (CMC) 96 % of control

CCCCCOC(=O)C(C)(O)C(Cl)c1ccccc1 (centres undefined)
inactive: [1] 102 % of control and 106 % of control | [2] 98 % of control and 103 % of control | dose: 400.0 mg/kg/injection, schedule: Q04DX002 (ip), vehicle: saline 91 % of control | dose: 600.0 mg/kg/injection, schedule: Q04DX002 (ip), vehicle: saline 117 % of control

O=C1c2ccccc2CC(Br)c2ccccc21 (centres undefined)
inactive: dose: 100.0 mg/kg/injection, schedule: Q01DX001 (ip), vehicle: Klucel (hydroxypropylcellulose) (HPC) 95 % of control | dose: 200.0 mg/kg/injection, schedule: Q01DX001 (ip), vehicle: Klucel (hydroxypropylcellulose) (HPC) 100 % of control | dose: 400.0 mg/kg/injection, schedule: Q01DX001 (ip), vehicle: Klucel (hydroxypropylcellulose) (HPC) 100 % of control

ClC1=C(Cl)C(Cl)(Cl)C1(Cl)Cl
inactive: [18] 109 % of control

O=[N+]([O-])c1cc(S(=O)(=O)c2ccc(Nc3ccccc3)c([N+](=O)[O-])c2)ccc1Nc1ccccc1
inactive: dose: 100.0 mg/kg/injection, schedule: Q04DX002 (ip), vehicle: gum acacia 93 % of control | dose: 200.0 mg/kg/injection, schedule: Q04DX002 (ip), vehicle: gum acacia 103 % of control | dose: 400.0 mg/kg/injection, schedule: Q04DX002 (ip), vehicle: gum acacia 97 % of control

OCc1ccn2c1C(O)CC2 (centres undefined)
inactive: dose: 29.0 mg/kg/injection, schedule: Q01DX009 (ip), vehicle: saline 100 % of control | dose: 45.0 mg/kg/injection, schedule: Q01DX009 (ip), vehicle: saline 115 % of control | [4] 108 % of control | dose: 150.0 mg/kg/injection, schedule: Q01DX009 (ip), vehicle: saline 111 % of control | [5] 117 % of control | [6] 97 % of control

CCCCN(CCCC)S(=O)(=O)O
inactive: dose: 25.0 mg/kg/injection, schedule: Q04DX002 (ip), vehicle: Klucel (hydroxypropylcellulose) (HPC) 101 % of control | dose: 50.0 mg/kg/injection, schedule: Q04DX002 (ip), vehicle: Klucel (hydroxypropylcellulose) (HPC) 108 % of control | [14] 115 % of control
